# Like-named read-outs stand apart in the source and are kept apart here. Bridge positions count the residues as written; N and C are the ends. Square brackets hold non-standard residues; d marks the D form. Peptide text beside a SMILES is read from it. * marks the point of attachment. ξ: configuration not given here. dCha = N[C@H](CC1CCCCC1)C(=O)O; Thr(3ξ) = CC(O)[C@H](N)C(=O)O; X8 = NCC(C(=O)*)C1CCCCC1; Dab = NCC[C@H](N)C(=O)O; Dap = NC[C@H](N)C(=O)O
# Key:
# Assay type in all cases: cell-based
# [1] = tested on: HK-2 cells
# Source text: Values are reported relative to Polymyxin B.
# [2] = tested on: Klebsiella pneumoniae
# In short: (§1)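 Susceptibility testing covered up to nine strains of each Gram-negative pathogen, among them resistant strains and strains with elevated MICs to Polymyxin. Values are MICs in μg/mL.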
# [3] = tested on: Acinetobacter baumannii
# In short: as §1
# [4] = tested on: Escherichia coli
# In short: as §1
# [5] = tested on: Pseudomonas aeruginosa
# In short: as §1
HK-2 IC50 [1] [µg/mL],MIC K. pneumoniae 063 [2] [µg/mL],MIC K. pneumoniae 065 [2] [µg/mL],MIC K. pneumoniae ATCC 13882 [2] [µg/mL],MIC A. baumanii 053 [3] [µg/mL],MIC A. baumanii 056 [3] [µg/mL],MIC A. baumanii ATCC BAA-747 [3] [µg/mL],MIC A. baumanii NCTC 13424 [3] [µg/mL],MIC E. coli 058 [4] [µg/mL],MIC E. coli 061 [4] [µg/mL],MIC E. coli ATCC 25922 [4] [µg/mL],MIC E. coli NCTC 9001 [4] [µg/mL],MIC P. aeruginosa 068 [5] [µg/mL],MIC P. aeruginosa 070 [5] [µg/mL],MIC P. aeruginosa ATCC 27853 [5] [µg/mL],MIC P. aeruginosa CCUG 59347 [5] [µg/mL],MIC K. pneumoniae ATCC 4352 [2] [µg/mL],Compound,also measured
255,32,1,0.125,32,8,0.06,0.03,2,16,0.06,0.06,4,4,0.25,0.25,–,"CC(C)C[C@@H]1NC(=O)[C@@H](CC2CCCCC2)NC(=O)[C@H](CCN)NC(=O)[C@@H](NC(=O)[C@H](CN)NC(=O)[C@@H](NC(=O)C(CCN)c2ccccc2)C(C)O)CCNC(=O)[C@H]([C@@H](C)O)NC(=O)[C@H](CCN)NC(=O)[C@H](CCN)NC1=O (single isomer, unassigned; isomer 2) [Example 38, 4-amino-2-phenylbutanoyl L-Thr-L-Dap-polymyxin [D-cyclohexylalanine]-6 heptapeptide. isomer 2]",–
86,8,1,–,16,4,0.06,0.125,1,8,0.25,0.125,4,4,0.25,0.5,0.125,"CC(C)C[C@@H]1NC(=O)[C@@H](CC2CCCCC2)NC(=O)[C@H](CCN)NC(=O)[C@@H](NC(=O)[C@H](CN)NC(=O)[C@@H](NC(=O)C(CN)C2CCCCC2)C(C)O)CCNC(=O)[C@H]([C@@H](C)O)NC(=O)[C@H](CCN)NC(=O)[C@H](CCN)NC1=O (stereo partly drawn) [Example 28, 3-Amino-2-cyclohexylpropanoyl L-Thr-L-Dap-polymyxin [D-cyclohexylalanine]-6 heptapeptide] (X8-[Thr(3ξ)][Dap][Dab][Dab][dCha]L[Dab][Dab]T; lactam 3-C)",–
–,–,–,–,–,–,–,–,–,–,–,–,–,–,–,–,–,"2-(2- Aminoethyl) octanoyl L- Thr-L-Dap- polymyxin heptapeptide [Example C6, reference compound]",HK-2 IC50 ([1]; HK-2 cells): 51 µg/mL; MIC K. pneumoniae 063 ([2]; strain 063): 8 µg/mL; MIC K. pneumoniae 065 ([2]; strain 065): 0.25 µg/mL; MIC K. pneumoniae ATCC 4352 ([2]; strain ATCC 4352): 0.06 µg/mL; MIC K. pneumoniae ATCC 13882 ([2]; strain ATCC 13882): 0.125 µg/mL; MIC A. baumanii 053 ([3]; strain 053): 32 µg/mL; MIC A. baumanii 056 ([3]; strain 056): 32 µg/mL; MIC A. baumanii ATCC BAA-747 ([3]; strain ATCC BAA-747): 0.06 µg/mL; MIC A. baumanii NCTC 13424 ([3]; strain NCTC 13424): 0.03 µg/mL; MIC E. coli 058 ([4]; strain 058): 1 µg/mL; MIC E. coli 061 ([4]; strain 061): 8 µg/mL; MIC E. coli ATCC 25922 ([4]; strain ATCC 25922): 0.125 µg/mL; MIC E. coli NCTC 9001 ([4]; strain NCTC 9001): 0.06 µg/mL; MIC P. aeruginosa 068 ([5]; strain 068): 2 µg/mL; MIC P. aeruginosa 070 ([5]; strain 070): 8 µg/mL; MIC P. aeruginosa ATCC 27853 ([5]; strain ATCC 27853): 0.125 µg/mL; MIC P. aeruginosa CCUG 59347 ([5]; strain CCUG 59347): 0.125 µg/mL
73,16,–,0.25,–,64,0.25,0.06,2,16,0.25,0.125,4,4,0.5,0.5,0.06,"CC(C)C[C@@H]1NC(=O)[C@@H](CC2CCCCC2)NC(=O)[C@H](CCN)NC(=O)[C@@H](NC(=O)[C@H](CN)NC(=O)[C@@H](NC(=O)CC(N)C2CCCCC2)C(C)O)CCNC(=O)[C@H]([C@@H](C)O)NC(=O)[C@H](CCN)NC(=O)[C@H](CCN)NC1=O (single isomer, unassigned; isomer 1) [Example 32, 3-amino-3-cyclohexylpropanoyl L-Thr-L-Dap-polymyxin [D-cyclohexylalanine]-6 heptapeptide. Isomer 1]",–
